# Reference: paper PMC6892255, “Identification of a potent small-molecule inhibitor of bacterial DNA repair that potentiates quinolone antibiotic activity in methicillin-resistant Staphylococcus aureus^” (Bioorganic & Medicinal Chemistry, 2019)
# Experiments:
# [1] = tested on: methicillin-resistant S. aureus (MRSA, USA300 JE2); assay: MIC / growth inhibition assay (end-point OD600), single agent; assay type: cell-based, Staphylococcus aureus; conditions: for fold less potent against JE2 compared to SH1000: ratio of single-agent EC50 values
# Excerpt: (§1) Minimum inhibitory concentration (MIC) assays were used to evaluate the antimicrobial activity of compounds against Gram-negative (E. coli) and Gram-positive (S. aureus) bacteria. […] Gram-positive bacteria are more susceptible to small-molecule penetration, and compounds were therefore assessed for growth inhibition against the S. aureus SH1000 strain.
# Methicillin-resistant S. aureus (MRSA) is a multi-drug resistant bacterium responsible for a large number of nosocomial infections.[34] The emergence of community associated (CA)-MRSA capable of infection of healthy individuals highlights its significance and clinical relevance.[35]
# (§2) 2.1. Biological and biochemical methods
# (§3) Bacterial strains and culture conditions
# (§4) Strains utilized in the present study are detailed in Table S1. All strains used were cultivated on Mueller Hinton Agar (MHA) and grown to stationary-phase in Mueller Hinton Broth (MHB) at 37 °C for 16 h, with shaking at 180 r.p.m.
# (§5) Minimum inhibitory concentration (MIC) assays
# (§6) MIC assays were performed in 96 well plates and MICs were determined in accordance with the broth microdilution protocol.4 Strains grown to stationary-phase in MHB were adjusted to 5 x 10^5 colony-forming units (CFU)/mL in fresh MHB (100 µL/well) supplemented with DMSO to ensure a constant concentration of 0.5% (v/v) DMSO across all experiments. Where […]
# (§7) or H2O2 (200 μM). Test compounds were prepared as two-fold serial dilutions. Cells were […]
# (§8) as the lowest concentration with no visible bacterial growth, and the optical density at 600 nm (OD600) was recorded. OD600 measurements were background corrected against no-inocula control and normalized to DMSO control for dose-response analysis. The EC50 value mean and SEM were calculated from individual EC50 values from three biological replicates. […]
# E. coli K-12 BW25113 = assay: as above; assay type: cell-based, Escherichia coli; conditions: for EC50: Escherichia coli, BW25113, end-point OD600 after 18 h, read-out: EC50 E. coli (K12 BW25113) Compound only
# Excerpt: as §1, §2, §3, §4, §5, §6, §7, §8
# [2] = tested on: methicillin-resistant S. aureus (MRSA, USA300 JE2); assay: Ciprofloxacin (CFX) potentiation in MRSA growth inhibition assay; assay type: cell-based, Staphylococcus aureus; conditions: for EC50: read-out: EC50 S. aureus (USA300 JE2) Compound + CFX (9.4 μM), in presence of half-MIC CFX (9.4 μM); for fold increase in potency of para- over meta-substituted analogue, potentiation by CFX: JE2 + CFX, 4 vs 1, 10 vs 7, 14 vs 13
# Procedure: as §2, §3, §4, §5, §6, §7, §8
# S. aureus SH1000 = assay: MIC / growth inhibition assay (end-point OD600), single agent; assay type: cell-based; conditions: Staphylococcus aureus, SH1000, 18 h, end-point OD600 after 18 h, read-out: EC50 S. aureus (SH1000) Compound only
# Excerpt: as §1, §2, §3, §4, §5, §6, §7, §8
# MRSA (USA300 JE2) [3] = assay: Growth inhibition in the presence of H2O2; assay type: cell-based, Staphylococcus aureus; conditions: read-out: EC50 Compound + H2O2 (200 µM); MRSA USA300 JE2, H2O2 200 µM
# Procedure: (§9) The analogue panel was further tested for potentiation of alternative DNA-damaging agents Mitomycin-C (MMC) and hydrogen peroxide (Table S2), which function via alkylation and oxidization DNA bases, respectively.
# as §2, §3, §4, §5, §6, §7, §8
# MRSA (USA300 JE2) [4] = assay: Growth inhibition in the presence of mitomycin-C; assay type: cell-based, Staphylococcus aureus; conditions: read-out: EC50 Compound + MMC (0.40 µM); MRSA USA300 JE2, mitomycin-C 0.40 µM
# Procedure: as §9, §2, §3, §4, §5, §6, §7, §8
# JE2 = assay: Synergy experiments with CFX (growth rate method, Chou-Talalay, CompuSyn); assay type: cell-based, Staphylococcus aureus; conditions: for Combination index (CI) with CFX: JE2, constant-ratio combination with CFX, CompuSyn; for EC50: Staphylococcus aureus, JE2, rate of exponential growth phase over 17 h at 37 °C
# Procedure: A more precise method to determine EC50 values for individual compounds and combinations was used to increase accuracy for CI calculations. […]
# Synergy experiments were performed as described for MIC assays. Two-fold serial dilutions […]
# carried out at 37 °C, with shaking at 220 r.p.m. OD600 was recorded every 30 min over a 17 h period. Measurements were background corrected against the no-inocula control before a growth curve of OD600 against time was constructed. The gradient of the exponential phase was obtained by linear regression. Gradients were normalized against the smallest and largest value within the respective data set prior to analysis with the CompuSyn software (http://www.combosyn.com/) to calculate combination index (CI) and dose-reduction index (DRI) values for each drug combination. […]
# E. coli topoisomerase IV = target: T1, E. coli topoisomerase IV (Escherichia coli, UniProt P0AFI2+P20083); assay: Topoisomerase IV supercoiling relaxation assay (pQE80L); assay type: biochemical; conditions: at 12.5 µM (compounds)
# T1 construct: purchased Inspiralis
# T1 sequence (P0AFI2 whole entry): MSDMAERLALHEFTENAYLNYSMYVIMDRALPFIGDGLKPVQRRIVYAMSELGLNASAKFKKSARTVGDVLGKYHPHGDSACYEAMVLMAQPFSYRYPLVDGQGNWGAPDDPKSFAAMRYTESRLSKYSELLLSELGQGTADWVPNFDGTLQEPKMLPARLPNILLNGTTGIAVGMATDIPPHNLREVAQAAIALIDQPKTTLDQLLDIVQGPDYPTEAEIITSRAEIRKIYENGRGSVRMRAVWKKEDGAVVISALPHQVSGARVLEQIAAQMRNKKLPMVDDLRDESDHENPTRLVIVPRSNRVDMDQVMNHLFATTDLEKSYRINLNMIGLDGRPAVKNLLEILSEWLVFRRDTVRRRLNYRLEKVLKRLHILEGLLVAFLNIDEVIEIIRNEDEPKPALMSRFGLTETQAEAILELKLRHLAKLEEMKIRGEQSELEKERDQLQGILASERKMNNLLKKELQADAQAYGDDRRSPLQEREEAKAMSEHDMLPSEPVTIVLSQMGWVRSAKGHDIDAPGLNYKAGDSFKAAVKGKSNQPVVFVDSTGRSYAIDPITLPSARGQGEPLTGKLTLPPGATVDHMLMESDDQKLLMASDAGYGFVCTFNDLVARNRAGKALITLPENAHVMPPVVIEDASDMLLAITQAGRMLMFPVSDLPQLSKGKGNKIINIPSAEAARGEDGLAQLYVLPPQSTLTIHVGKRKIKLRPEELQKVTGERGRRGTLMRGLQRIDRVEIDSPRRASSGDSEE
# T1 sequence (P20083 whole entry): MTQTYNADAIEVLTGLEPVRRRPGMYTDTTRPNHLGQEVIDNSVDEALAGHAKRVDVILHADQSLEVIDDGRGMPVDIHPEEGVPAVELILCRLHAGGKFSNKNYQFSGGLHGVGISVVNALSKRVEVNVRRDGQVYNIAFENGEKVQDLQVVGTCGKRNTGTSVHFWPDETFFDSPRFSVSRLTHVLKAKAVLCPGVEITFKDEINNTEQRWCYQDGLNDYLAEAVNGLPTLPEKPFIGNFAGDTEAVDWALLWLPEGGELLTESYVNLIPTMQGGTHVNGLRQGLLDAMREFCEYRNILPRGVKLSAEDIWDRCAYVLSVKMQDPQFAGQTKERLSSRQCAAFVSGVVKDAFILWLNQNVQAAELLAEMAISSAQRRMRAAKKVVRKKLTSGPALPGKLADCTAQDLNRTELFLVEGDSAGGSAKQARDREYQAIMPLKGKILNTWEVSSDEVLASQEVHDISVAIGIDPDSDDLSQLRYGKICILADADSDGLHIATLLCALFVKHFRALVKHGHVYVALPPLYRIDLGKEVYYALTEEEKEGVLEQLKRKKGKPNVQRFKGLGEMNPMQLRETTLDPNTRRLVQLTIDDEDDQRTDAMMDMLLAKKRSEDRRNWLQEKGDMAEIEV
# Procedure: 2.1. Biological and biochemical methods […]
# E. coli DNA gyrase supercoiling assay (Inspiralis) was performed according to the manufacturer’s instructions, ensuring a constant concentration of 1% (v/v) DMSO. Samples were separated on a 1% (w/v) agarose gel prepared with Tris/Borate/EDTA (TBE) buffer (1 M Tris-borate, 20 mM EDTA, pH 8.0). Electrophoresis was performed at 100 V until the bromophenol blue dye had run >6 cm to ensure resolution of relaxed and supercoiled DNA.
# The gel was stained with SYBR Safe DNA gel stain (Invitrogen, 1:10,000 dilution in TBE) for 30 min, and visualized on a Syngene Gel Doc system. Band intensity was quantified using ImageJ software and the fraction of supercoiled plasmid was determined as the ratio of the density of the supercoiled band to the total density. Values were background corrected against the no-gyrase control and normalized to DMSO control for dose-response analysis.
# E. coli topoisomerase IV supercoiling relaxation assay (Inspiralis) was performed according to the manufacturer’s instructions, ensuring a constant concentration of 1% (v/v) DMSO.
# Supercoiled pQE80L was prepared via plasmid purification and used as the substrate for the reaction. Reactions were analyzed as described for DNA gyrase assays. […]
# [5] = Staphylococcus aureus, 18 h, read-out: EC50 S. aureus (USA300 JE2) Compound only, single agent, end-point OD600 after 18 h
SMILES,"EC50 [1, 5] [µM]",EC50 (E. coli K-12 BW25113) [µM],EC50 [2] [µM],EC50 (S. aureus SH1000) [µM],EC50 (MRSA (USA300 JE2) [3]) [µM],EC50 (MRSA (USA300 JE2) [4]) [µM],further results
O=C(O)c1cn(C2CC2)c2cc(NCCNC(=S)Nc3ccc(C(F)(F)F)cc3)c(F)cc2c1=O [Compound 18],9.7 ± 1,> 100,2.5 ± 0.3,7.7 ± 1.2,,,
CCn1cc(C(=O)O)c(=O)c2cnc(N3CCN(C(=S)Nc4cccc(Cl)c4)CC3)nc21 [Compound 5],~6,> 100,0.31 ± 0.02,~6,8.4 ± 0.2,4.5 ± 1.2,"EC50 ([1]; read-out: EC50 S. aureus (USA300 JE2) Compound only, single agent, end-point OD600 after 18 h): 6.9 ± 0.1 µM; Combination index (CI) with CFX (JE2): 0.96; EC50 (JE2): 6.2 ± 0.1 µM; fold increase in potency against JE2 in the presence of CFX compared to single agent ([2]; CFX 9.4 µM): ~20 fold; Inhibition of topoisomerase IV (E. coli topoisomerase IV): not"
O=C(O)c1cn(C2CC2)c2cc(N3CCN(C(=S)Nc4cccc([N+](=O)[O-])c4)CC3)c(F)cc2c1=O [Compound 13],> 25,0.27 ± 0.02,0.43 ± 0.09,0.11 ± 0.03,,,
CC(C)(C)OC(=O)NCCNC(=O)c1cn(C2CC2)c2cc(N3CCN(C(=S)Nc4ccc(C(F)(F)F)cc4)CC3)c(F)cc2c1=O [Compound 19],> 100,> 100,,> 100,,,
CCn1cc(C(=O)O)c(=O)c2cnc(N3CCN(C(=O)Nc4ccccc4)CC3)nc21 [Compound 15],,> 12.5,> 12.5,> 12.5,,,"EC50 ([1]; Staphylococcus aureus, single agent, end-point OD600 after 18 h, read-out: EC50 S. aureus (USA300 JE2) Compound only): > 12.5 µM; Effect of the presence of CFX on potency ([2]; JE2, CFX 9.4 µM): unaffected; Inhibition of topoisomerase IV (E. coli topoisomerase IV): not inhibited and not"
O=C(O)c1cn(C2CC2)c2cc(N3CCN(C(=S)Nc4cc(C(F)(F)F)cc(C(F)(F)F)c4)CC3)c(F)cc2c1=O [Compound 9],3.5 ± 0.4,0.39 ± 0.01,0.47 ± 0.07,1.5 ± 0.3,2.6 ± 0.3,1.8 ± 0.3,fold more potent against E. coli than SH1000 (E. coli K-12 BW25113): ~5 fold
O=C(O)c1cn(C2CC2)c2cc(N3CCN(C(=S)Nc4ccc([N+](=O)[O-])cc4)CC3)c(F)cc2c1=O [Compound 14],> 12.5,0.26 ± 0.04,0.049 ± 0.006,0.05 ± 0.008,,,"fold increase in potency of para- over meta-substituted analogue, potentiation by CFX [2]: ~10 fold"
O=C(O)c1cn(C2CC2)c2cc(N3CCN(C(=S)Nc4cccc(Cl)c4)CC3)c(F)cc2c1=O [Compound 11],2.8 ± 0.1,0.46 ± 0.1,0.084 ± 0.007,0.12 ± 0.04,3.2,2.2 ± 0.6,fold less potent against JE2 compared to SH1000 [1]: > 20 fold
CC1CN(c2cc3c(cc2F)c(=O)c(C(=O)O)cn3C2CC2)CCN1C(=S)Nc1ccc(C(F)(F)F)cc1 (centres unmarked) [Compound 16],3.9 ± 0.4,0.3 ± 0.06,0.018 ± 0.003,0.26 ± 0.04,,,
"OO [Compound H2O2, hydrogen peroxide, reference compound]",,,,,,,"EC50 ([1]; single agent, end-point OD600 after 18 h, read-out: EC50 S. aureus (USA300 JE2) Compound only): 147 ± 11 µM"
"CCn1cc(C(=O)O)c(=O)c2cnc(N3CCN(C(=S)Nc4cccc(C(F)(F)F)c4)CC3)nc21 [Compound 1, reference compound]",6.9 ± 0.6,> 100,1.1 ± 0.1,8.2 ± 1.7,6.5 ± 0.1,3.3 ± 0.6,Combination index (CI) with CFX (JE2): 1.0; EC50 (JE2): 5.9 ± 0.2 µM; Inhibition of topoisomerase IV (E. coli topoisomerase IV): not inhibited and not
O=C(O)c1cn(C2CC2)c2cc(N3CCN(C(=S)Nc4cc(Cl)cc(Cl)c4)CC3)c(F)cc2c1=O [Compound 12],3.6 ± 0.4,0.42 ± 0.02,0.043 ± 0.011,0.084 ± 0.007,2.9 ± 0.8,0.8,fold less potent against JE2 compared to SH1000 [1]: > 20 fold
O=C(O)c1cn(C2CC2)c2cc(N3CCC(NC(=S)Nc4ccc(C(F)(F)F)cc4)C3)c(F)cc2c1=O (centres unmarked) [Compound 17],53 ± 13,2.8 ± 0.4,3.2 ± 0.3,1.6 ± 0.4,,,
CCn1cc(C(=O)O)c(=O)c2cnc(N3CCN(C(=S)Nc4cc(C(F)(F)F)cc(C(F)(F)F)c4)CC3)nc21 [Compound 3],2.7 ± 0.6,> 100,0.62 ± 0.09,3.6 ± 0.4,2.4 ± 0.2,1.5 ± 0.1,
O=C(O)c1cn(C2CC2)c2cc(N3CCN(C(=S)Nc4cccc(F)c4)CC3)c(F)cc2c1=O [Compound 8],4.8 ± 0.9,0.24 ± 0.03,0.22 ± 0.05,0.08 ± 0.01,4.6 ± 0.4,3.4 ± 0.9,fold less potent against JE2 compared to SH1000 [1]: > 20 fold; fold higher potency than other CFX derivatives in E. coli (E. coli K-12 BW25113): approximately 2 fold
O=C(O)c1cn(C2CC2)c2cc(N3CCN(C(=S)Nc4cccc(C(F)(F)F)c4)CC3)c(F)cc2c1=O [Compound 7],3.7 ± 0.5,0.41,0.14,0.19 ± 0.06,5.5 ± 0.6,2.8 ± 0.4,fold less potent against JE2 compared to SH1000 [1]: > 20 fold
CCn1cc(C(=O)O)c(=O)c2cnc(N3CCN(C(=S)Nc4cc(Cl)cc(Cl)c4)CC3)nc21 [Compound 6],1.8 ± 0.1,> 100,0.12 ± 0.04,2.3 ± 0.3,2.5 ± 0.4,1.5,
NCCNC(=O)c1cn(C2CC2)c2cc(N3CCN(C(=S)Nc4ccc(C(F)(F)F)cc4)CC3)c(F)cc2c1=O [Compound 20],78 ± 8,47 ± 1,,76 ± 5,,,
"CO[C@@]12[C@H](COC(N)=O)C3=C(C(=O)C(C)=C(N)C3=O)N1C[C@@H]1N[C@@H]12 [MMC, Mitomycin-C, reference compound]",0.33 ± 0.01,,,,,,
CCn1cc(C(=O)O)c(=O)c2cnc(N3CCN(C(=S)Nc4cccc(F)c4)CC3)nc21 [Compound 2],27 ± 0.4,> 100,0.73 ± 0.12,6.9 ± 0.4,24 ± 3,21 ± 2.2,
CCn1cc(C(=O)O)c(=O)c2cnc(N3CCN(C(=S)Nc4ccc(C(F)(F)F)cc4)CC3)nc21 [Compound 4],4 ± 0.3,> 100,0.24 ± 0.03,5.2 ± 1.1,4.7 ± 0.9,2.9 ± 0.2,"fold increase in potency of para- over meta-substituted analogue, potentiation by CFX [2]: ~5 fold"
